Data from patent US20080318892A1, “METHODS AND FORMULATIONS FOR PROTECTING CELLS, AND FOR TREATING DISEASES AND CONDITIONS BY OPTIMIZING THE INTRACELLULAR CONCENTRATION OF NAD” (priority 2007, published 2008).

Tests used:
[1] = tested on: microvessels invested by human SMC's; assay: Human-mouse chimeric angiogenesis in vivo (matrigel implants); parameters: species or system SCID mice; details: matrigel implants with PBEF-overexpressing SMC's, 8 days; p<0.05 vs vector
Procedure: Human-Mouse Chimeric Angiogenesis in vivo was measured. HITC6 SMCs in M199 with 10% FBS and fibroblast growth factor-2 (FGF-2) were mixed with an equal volume of growth factor-reduced matrigel (BD Discovery Labware) yielding final concentrations of 5×10^5 cells/ml and 250 ng/ml FGF-2. The cell-matrigel suspension (500 μl) was subcutaneously injected into the abdomen of mice with severe combined immunodeficiency syndrome (SCID). After 8 days, implants were harvested, fixed for 8 h in Tris-buffered zinc (32), and paraffin-embedded tissues were sectioned at 5 μm. […] Tissue was then incubated with rabbit anti-GFP (1:200, BD Clontech, Palo Alto, Calif.) and bound primary antibody detected with alkaline phosphatase-conjugated goat anti-rabbit secondary antibody and visualized with red alkaline phosphatase substrate (Vector). […]
Human-Mouse Chimeric Angiogenesis in vivo was measured. […] Tissue was then incubated with rabbit anti-GFP (1:200, BD Clontech, Palo Alto, Calif.) and bound primary antibody detected with alkaline phosphatase-conjugated goat anti-rabbit secondary antibody and visualized with red alkaline phosphatase substrate (Vector). […]

SIRT1 = assay: Western blot of SIRT1 protein expression in SMCs; format: cell-based, human; details: PBEF overexpression; p=0.02
Procedure: Western Blot and Immunoprecipitation Analysis. Protein expression was assessed by Western blot analysis with chemiluminescence detection, as previously described (Rocnik, 2002). PBEF was detected using a rabbit polyclonal anti-human PBEF/Pre-B-cell colony enhancing factor antibody (Bethyl Laboratories, Montgomery, Tex.). SIRT1 was detected using a rabbit polyclonal anti-SIRT1 antibody (Abcam, Cambridge, Mass.) and p53 and α-tubulin were detected with monoclonal antibodies (CO-1, Santa Cruz, Calif. and Clone B-5-1-1, Sigma, Oakville, ON, respectively). Cytoplasmic p53 was similarly assessed following cell fractionation (NucBuster, Novagen Minneapolis, Minn.). Identification of p53 that underwent NAD^+-dependent removal of an acetyl group on residue K382 was determined by pretreating SMCs for 2 h with 5 μM trichostatin A (TSA), immunoprecipitating p53 from the cell lysate with a goat polyclonal antibody (R&D Systems, Minneapolis, Minn.), and immunoblotting using a rabbit polyclonal anti-acetylated p53 (K382) antibody (American Proteomics, Carlsbad, Calif.) and HRP-labelled donkey anti-rabbit IgG antibody (Amersham, Piscataway, N.J.).
Western Blot Analysis. Protein expression was assessed by Western blot analysis of confluent cultured SMCs, as previously described (Rocnik et al., 2002). […] Signal was detected by chemiluminescence (Pierce, Rockford, Ill., USA).

HITB5 SMC's = assay: SMC proliferation (cell accumulation over 11 days); format: cell-based, human; details: PBEF-overexpressing HITB5 SMCs, 5% serum, p<0.01 vs EGFP control
Procedure: Cell Proliferation, DNA Synthesis, and Apoptosis were also evaluated. To assess SMC proliferation, cells were plated at a density of 3000 cells per cm^2 and cultured in M199 containing 5% FBS. Triplicate wells were harvested at the designated times and counted using a hemacytometer. To quantify DNA synthesis, cells in log-phase growth were incubated for 12 hours with [^3H]thymidine (10 μCi/mL) and TCA-precipitable counts determined as described (5). Thymidine incorporation was expressed relative to DNA content, quantified by spectrofluorimetry of an aliquot of cell lysate incubated with 500 μg/ml Hoechst 33258. Apoptosis was assessed in SMCs seeded on glass coverslips by in situ end-labeling of DNA fragments using terminal deoxynucleotide transferase and fluorescein 12-dUTP (Promega) (5). Cells were fixed with 4% paraformaldehyde and counterstained with Hoechst 33258.

## PBEF: 52-55 kD protein, rate-limiting enzyme for NAD+ biosynthesis from nicotinamide; tested by retroviral cDNA overexpression in cells
[1]
  proportion of microvessels invested by one or more human SMC's: 17.8±2.5%
SIRT1
  abundance of SIRT1 protein: 1.3±0.3 fold
HITB5 SMC's
  doubling time: 5.4 days
